Counter-ions that a name gives are not always drawn. Like-named read-outs stand apart in the source and are kept apart here. Each block holds one compound with its values, some of them ahead of it.
Tests used:
[1] = Determination of the log P values (formic acid method)
Method: 1) Description of Method for Determination of the log P Values (Formic Aid Method)
Eluents for determination in the acidic range (pH 3.4):
Eluent A: acetonitrile+1 ml of formic acid/liter. Eluent B: water+0.9 ml of formic acid/liter.
The lambda max values were determined in the maxima of the chromatographic signals using the UV spectra from 200 nm to 400 nm.

Myzus persicae = test: Myzus test (spray treatment); assay type: in vivo; conditions: foliar, read-out: efficacy in % (aphids killed)
Method: Solvent 78 parts by weight of acetone • • 1.5 parts by weight of dimethylformamide
Emulsifier: 0.5 part by weight of alkylaryl polyglycol ether
To prepare an appropriate active ingredient preparation, 1 part by weight of active ingredient is mixed with the stated amounts of solvent and emulsifier, and the concentrate is diluted with emulsifier-containing water to the desired concentration.

[2] = reverse-phase C18 HPLC column, pH 3.4, log P (HCOOH), preparation examples, HPLC-MS
[3] = application rate 500 g/ha, sprayed Chinese cabbage leaf discs, all stages of green peach aphid
[4] = reverse-phase C18 HPLC column, pH 3.4, logP (HCOOH), final compounds table, HPLC reverse-phase C18, acidic range pH 3.4, 55° C.
[5] = reverse-phase C18 HPLC column, pH 3.4, logP (HCOOH), intermediates tables, HPLC reverse-phase C18, acidic range pH 3.4, 55° C.

Compound: Brc1cnn(-c2cccnc2)c1 [3-(4-Bromopyrazol-1-yl)pyridine]
chromatographic logP [1, 2]: 1.56

Compound: Cc1nc(-c2cncc(F)c2)sc1-c1cc(C(=O)O)n(C)n1 [3-[2-(5-Fluoropyridin-3-yl)-4-methyl-1,3-thiazol-5-yl]-1-methyl-1H-pyrazole-5-carboxylic acid]
chromatographic logP [1, 2]: 2.05

Compound: CC1(C)OB(c2cnn(-c3cccnc3)c2)OC1(C)C [3-[4-(4,4,5,5-Tetramethyl-[1,3,2]dioxaborolan-2-yl)pyrazol-1-yl]pyridine]
chromatographic logP ([1]; pH 3.4, log P (HCOOH)): 2.19

Compound: Nc1cccc(-c2cnn(-c3cccnc3)c2)n1 [6-[1-(Pyridin-3-yl)-1H-pyrazol-4-yl]pyridine-2-amine]
chromatographic logP [1, 2]: 0.3

Compound: N#Cc1cccc(-c2cnc(-c3cncc(F)c3)s2)n1 [6-[2-(5-Fluoropyridin-3-yl)-1,3-thiazol-5-yl]pyridine-2-carbonitrile]
chromatographic logP [1, 2]: 2.51

Compound: O=C(O)c1cccc(-c2cnc(-c3cncc(F)c3)s2)n1 [6-[2-(5-Fluoropyridin-3-yl)-1,3-thiazol-5-yl]pyridine-2-carboxylic acid]
chromatographic logP [1, 2]: 1.72

Compound: CS(=O)(=O)Nc1cccc(-c2cnn(-c3cccnc3)c2)n1 [Compound 1, N-{6-[1-(Pyridin-3-yl)-1H-pyrazol-4-yl]pyridin-2-yl}methanesulphonamide]
pest or weed control at 500 g/ha (Myzus persicae; [3]): 80%
chromatographic logP ([1]; pH 3.4, log P (HCOOH)): 1.26
chromatographic logP ([1]; pH 3.4, logP (HCOOH)): 1.26

Compound: O=C(NS(=O)(=O)C(F)(F)F)c1cccc(-c2cnc(-c3cncc(F)c3)s2)n1 [Compound 2, 6-[2-(5-Fluoropyridin-3-yl)-1,3-thiazol-5-yl]-N-[(trifluoromethyl)sulphonyl]pyridine-2-carboxamide]
pest or weed control at 500 g/ha (Myzus persicae; [3]): 100%
chromatographic logP ([1]; pH 3.4, log P (HCOOH)): 1.86
chromatographic logP ([1]; pH 3.4, logP (HCOOH)): 1.86

Compound: CS(=O)(=O)NC(=O)c1cccc(-c2nnc(-c3cncc(F)c3)s2)n1 [Compound 3, 6-[5-(5-Fluoropyridin-3-yl)-1,3,4-thiadiazol-2-yl]-N-(methylsulphonyl)pyridine-2-carboxamide]
pest or weed control at 500 g/ha (Myzus persicae; [3]): 100%
chromatographic logP ([1]; pH 3.4, log P (HCOOH)): 1.79
chromatographic logP ([1]; pH 3.4, logP (HCOOH)): 1.79

Compound: CS(=O)(=O)NC(=O)c1cccc(-c2cnn(-c3cncc(F)c3)c2)n1 [Compound 4, 6-[1-(5-Fluoropyridin-3-yl)-1H-pyrazol-4-yl]-N-(methylsulphonyl)pyridine-2-carboxamide]
chromatographic logP [1, 2]: 1.98

Compound: O=C(NS(=O)(=O)C1CC1)c1cccc(-c2cnc(-c3cncc(F)c3)s2)n1 [Compound 6]
pest or weed control at 500 g/ha (Myzus persicae; [3]): 100%
chromatographic logP ([1]; pH 3.4, logP (HCOOH)): 2.44

Compound: CCS(=O)(=O)NC(=O)c1cccc(-c2cnn(-c3cncnc3)c2)n1 [Compound 7]
pest or weed control at 500 g/ha (Myzus persicae; [3]): 100%
chromatographic logP ([1]; pH 3.4, logP (HCOOH)): 1.63

Compound: CS(=O)(=O)NC(=O)c1cccc(-c2cnc(-c3cncnc3)s2)n1 [Compound 8]
pest or weed control at 500 g/ha (Myzus persicae; [3]): 100%
chromatographic logP [1, 4]: 1.48

Compound: CS(=O)(=O)NC(=O)c1cccc(-c2cnc(-c3cncc(F)c3)s2)n1 [Compound 9]
pest or weed control at 500 g/ha (Myzus persicae; [3]): 100%
chromatographic logP ([1]; pH 3.4, logP (HCOOH)): 2.05

Compound: COCCS(=O)(=O)Nc1cccc(-c2cnn(-c3cccnc3)c2)n1 [Compound 10]
pest or weed control at 500 g/ha (Myzus persicae; [3]): 80%
chromatographic logP ([1]; pH 3.4, logP (HCOOH)): 1.43

Compound: O=C(NS(=O)(=O)C(F)F)c1cccc(-c2cnc(-c3cncc(F)c3)s2)n1 [Compound 11]
pest or weed control at 500 g/ha (Myzus persicae; [3]): 100%
chromatographic logP [1, 4]: 1.79

Compound: CS(=O)(=O)NC(=O)c1cccc(-c2cnc(-c3cccnc3)s2)n1 [Compound 12]
pest or weed control at 500 g/ha (Myzus persicae; [3]): 100%
chromatographic logP ([1]; pH 3.4, logP (HCOOH)): 1.56

Compound: O=C(NS(=O)(=O)c1ccccc1)c1cccc(-c2cnc(-c3cncc(F)c3)s2)n1 [Compound 13]
pest or weed control at 500 g/ha (Myzus persicae; [3]): 100%
chromatographic logP [1, 4]: 2.94

Compound: CS(=O)(=O)N(c1cccc(-c2cnn(-c3cncc(F)c3)c2)n1)S(C)(=O)=O [Compound 14]
pest or weed control at 500 g/ha (Myzus persicae; [3]): 90%
chromatographic logP ([1]; pH 3.4, logP (HCOOH)): 2.15

Compound: CN(C)S(=O)(=O)NC(=O)c1cccc(-c2cnn(-c3cncc(F)c3)c2)n1 [Compound 16]
pest or weed control at 500 g/ha (Myzus persicae; [3]): 100%
chromatographic logP [1, 4]: 2.42

Compound: CS(=O)(=O)NC(=O)c1cccc(-c2cnc(-c3cncc(Cl)c3)s2)n1 [Compound 17]
pest or weed control at 500 g/ha (Myzus persicae; [3]): 100%
chromatographic logP [1, 4]: 2.4

Compound: CCS(=O)(=O)NC(=O)c1cccc(-c2cnc(-c3cncc(F)c3)s2)n1 [Compound 18]
pest or weed control at 500 g/ha (Myzus persicae; [3]): 100%
chromatographic logP [1, 4]: 2.33

Compound: CCS(=O)(=O)Nc1cccc(-c2cnn(-c3cccnc3)c2)n1 [Compound 19]
pest or weed control at 500 g/ha (Myzus persicae; [3]): 100%
chromatographic logP ([1]; pH 3.4, logP (HCOOH)): 1.48

Compound: CC(C)S(=O)(=O)NC(=O)c1cccc(-c2cnc(-c3cncc(F)c3)s2)n1 [Compound 20]
pest or weed control at 500 g/ha (Myzus persicae; [3]): 100%
chromatographic logP [1, 4]: 2.61

Compound: O=C(NS(=O)(=O)Cc1ccccc1)c1cccc(-c2cnc(-c3cncc(F)c3)s2)n1 [Compound 21]
pest or weed control at 500 g/ha (Myzus persicae; [3]): 80%
chromatographic logP ([1]; pH 3.4, logP (HCOOH)): 2.97

Compound: CS(=O)(=O)NC(=O)c1cccc(-c2cnn(-c3cncnc3)c2)n1 [Compound 22]
pest or weed control at 500 g/ha (Myzus persicae; [3]): 100%
chromatographic logP ([1]; pH 3.4, logP (HCOOH)): 1.38

Compound: O=C(NS(=O)(=O)c1ccccc1)c1cccc(-c2cnn(-c3cncnc3)c2)n1 [Compound 23]
pest or weed control at 500 g/ha (Myzus persicae; [3]): 90%
chromatographic logP [1, 4]: 2.24

Compound: CS(=O)(=O)NC(=O)c1cccc(-c2cnn(-c3cccnc3)c2)n1 [Compound 24]
pest or weed control at 500 g/ha (Myzus persicae; [3]): 100%
chromatographic logP ([1]; pH 3.4, logP (HCOOH)): 1.48

Compound: CCS(=O)(=O)NC(=O)c1cccc(-c2cnn(-c3cccnc3)c2)n1 [Compound 25]
pest or weed control at 500 g/ha (Myzus persicae; [3]): 100%
chromatographic logP ([1]; pH 3.4, logP (HCOOH)): 1.77

Compound: CCS(=O)(=O)NC(=O)c1cccc(-c2cnn(-c3cncc(F)c3)c2)n1 [Compound 26]
pest or weed control at 500 g/ha (Myzus persicae; [3]): 100%
chromatographic logP ([1]; pH 3.4, logP (HCOOH)): 2.21

Compound: CN(C)S(=O)(=O)NC(=O)c1cccc(-c2cnn(-c3cccnc3)c2)n1 [Compound 27]
pest or weed control at 500 g/ha (Myzus persicae; [3]): 100%
chromatographic logP [1, 4]: 1.96

Compound: O=C(NS(=O)(=O)C1CC1)c1cccc(-c2cnn(-c3cncnc3)c2)n1 [Compound 28]
pest or weed control at 500 g/ha (Myzus persicae; [3]): 80%
chromatographic logP ([1]; pH 3.4, logP (HCOOH)): 1.76

Compound: N=C(N)c1cccc(-c2cnc(-c3cccnc3)s2)n1 [Compound 48]
pest or weed control at 500 g/ha (Myzus persicae; in Brassica rapa): 90%

Compound: N=C(N)c1cccc(-c2cnc(-c3cncc(F)c3)s2)n1 [Compound 79, 6-[2-(5-Fluoropyridin-3-yl)-1,3-thiazol-5-yl]pyridine-2-carboxamide amide hydrochloride (1:1)]
chromatographic logP [1, 2]: 0.71

Compound: CCOC(=O)c1cc(-c2sc(-c3cncc(F)c3)nc2C)nn1C [Ethyl 3-[2-(5-fluoropyridin-3-yl)-4-methyl-1,3-thiazol-5-yl]-1-methyl-1H-pyrazole-5-carboxylate]
chromatographic logP ([1]; pH 3.4, log P (HCOOH)): 3.7

Compound: CCOC(=O)C(=O)CC(=O)c1sc(-c2cncc(F)c2)nc1C [Ethyl 4-[2-(5-fluoropyridin-3-yl)-4-methyl-1,3-thiazol-5-yl]-2,4-dioxobutanoate]
chromatographic logP ([1]; pH 3.4, log P (HCOOH)): 3.37

Compound: COC(=O)c1cccc(-c2cnc(-c3cncc(F)c3)s2)n1 [Methyl 6-[2-(5-fluoropyridin-3-yl)-1,3-thiazol-5-yl]pyridine-2-carboxylate]
chromatographic logP ([1]; pH 3.4, log P (HCOOH)): 2.37

Compound: CS(=O)(=O)NC(=O)c1cccc(-c2cn[nH]c2)n1 [N-(Methylsulphonyl)-6-(1H-pyrazol-4-yl)pyridine-2-carboxamide]
chromatographic logP [1, 2]: 0.91

The remaining lines, values ahead:

chromatographic logP [1, 5]: 2.4
Compound: O=C(NS(=O)(=O)Cc1ccccc1)c1cccc(Br)n1 [XII-1]

chromatographic logP [1, 5]: 1.82
Compound: CN(C)S(=O)(=O)NC(=O)c1cccc(Br)n1 [XII-2]

chromatographic logP [1, 5]: 1.15
Compound: CS(=O)(=O)NC(=O)c1cccc(Cl)n1 [XII-3]

chromatographic logP [1, 2]: 1.21
chromatographic logP [1, 5]: 1.28
Compound: CS(=O)(=O)NC(=O)c1cccc(Br)n1 [XII-4, 6-Bromo-N-(methylsulphonyl)pyridine-2-carboxamide]

chromatographic logP [1, 5]: 1.54
Compound: CCS(=O)(=O)NC(=O)c1cccc(Br)n1 [XII-5]

chromatographic logP [1, 5]: 2.32
Compound: O=C(NS(=O)(=O)c1ccccc1)c1cccc(Br)n1 [XII-6]

chromatographic logP [1, 5]: 1.7
Compound: O=C(NS(=O)(=O)C1CC1)c1cccc(Br)n1 [XII-7]

chromatographic logP [1, 2]: 1.48
chromatographic logP [1, 5]: 1.51
Compound: Fc1cncc(-c2nccs2)c1 [XIII-1, 3-Fluoro-5-(1,3-thiazol-2-yl)pyridine]

chromatographic logP [1, 5]: 1.94
Compound: Clc1cncc(-c2nccs2)c1 [XIII-2]

chromatographic logP [1, 5]: 0.69
Compound: c1ncc(-c2nccs2)cn1 [XIII-3]

chromatographic logP [1, 5]: 1.34
Compound: N#Cc1cncc(-c2nccs2)c1 [XIII-4]

chromatographic logP [1, 2]: 0.95
chromatographic logP [1, 5]: 0.95
Compound: CC(=O)NS(=O)(=O)c1cccc(Br)n1 [XIV-2, N-[(6-Bromopyridin-2-yl)sulphonyl]acetamide]

chromatographic logP [1, 2]: 0.83
chromatographic logP [1, 5]: 0.82
Compound: CS(=O)(=O)NC(=O)c1csc(Br)n1 [XV-1, 2-Bromo-N-(methylsulphonyl)-1,3-thiazole-4-carboxamide]

chromatographic logP [1, 2]: 0.63
chromatographic logP [1, 5]: 0.63
Compound: CS(=O)(=O)NC(=O)c1nc(Br)cs1 [XVI-1, 4-Bromo-N-(methylsulphonyl)-1,3-thiazole-2-carboxamide]

chromatographic logP [1, 2]: 0.99
chromatographic logP [1, 5]: 0.99
Compound: NS(=O)(=O)c1cccc(-c2cnn(-c3cccnc3)c2)n1 [XVII-1, 6-[1-(pyridin-3-yl)-1H-pyrazol-4-yl]pyridine-2-sulphonamide]

chromatographic logP [1, 5]: 1.44
Compound: NS(=O)(=O)c1cccc(-c2cnn(-c3cncc(F)c3)c2)n1 [XVII-2]

chromatographic logP ([1]; pH 3.4, logP (HCOOH)): 0.89
Compound: NS(=O)(=O)c1cccc(-c2cnn(-c3cncnc3)c2)n1 [XVII-3]

Reference: patent US9044015B2, “Heterocyclic compounds as pesticides” (Bayer CropScience AG, priority 2010, dated 2015)
